Assay results taken from PMC4061029, “A Stable and Reproducible Human Blood-Brain Barrier Model Derived from Hematopoietic Stem Cells” (PLoS ONE, 2014).

What was measured:
[1] = system: CD34+-derived ECs co-cultured with pericytes; experiment: Abrogation of Wnt signaling: paracellular permeability of ECs co-cultured with pericytes; format: cell-based, human; settings: co-culture with pericytes, 4 days, 0.1 or 1 µM, luminal side
Experimental: Prior to the experiments, HEPES-buffered Ringer’s solution (in some cases EBM-2 medium) was added to empty wells of a 12-well plate (Costar). Filter inserts, containing confluent monolayers of CD34^+-ECs, were subsequently placed in the 12-well plate, filled with compound solution containing the fluorescent integrity marker Lucifer Yellow (20 µM; Life Technologies), and then placed on an orbital shaker. After 1 h, filter inserts were withdrawn from the receiver compartment. Aliquots from the donor solution were taken at the beginning and at the end of the experiments and the fluorescence was quantified. At least three inserts with cells and three without cells were tested in each permeability measurement. Fluorescence detection was carried out on a Synergy H1 multiplates reader (Biotek) using the following excitation/emission wavelength (nm) settings: 432/538; 490/516; 542/570 for Lucifer yellow, Fluorescein Na and Cy3-Human Serum Albumin and Human IgG respectively.
For Wnt signaling experiments, mono- and co-culture systems were used. […]
Figure 6 Evaluation of Wnt signaling in the induction of BBB properties in ECs. […] After 4 days of coculture, the paracellular permeability and cell organization were evaluated. (D) Fluorescence microscopy images showing the expression of ZO-1 in untreated ECs or ECs treated with XAV 939 (1 µM) for 4 days. […]

[2] = system: CD34+-derived ECs co-cultured with pericytes; experiment: Cell viability of ECs under Wnt antagonist; format: cell-based, human; settings: co-culture with pericytes, 4 days
[3] = system: iPSC-derived ECs with astrocytes; parameters: method as in PMID 24561821; settings: cited from earlier work

SMILES	paracellular permeability of the EC monolayer to lucifer yellow [1]	cell viability [2]	TEER of the BBB model [3]
Oc1nc(-c2ccc(C(F)(F)F)cc2)nc2c1CSCC2 [XAV-939]	increased	did not affect	
CC1=C(/C=C/C(C)=C/C=C/C(C)=C/C(=O)O)C(C)(C)CCC1 [retinoic acid]			up to 5000 Ω×cm^2
